Source: ChEMBL document CHEMBL4825673, “Total and Semisyntheses of Polymyxin Analogues with 2-Thr or 10-Thr Modifications to Decipher the Structure-Activity Relationship and Improve the Antibacterial Activity” (J Med Chem, 2021)
Converted amounts (≈) assume the structure as drawn. Positions of bridges follow the written chain, without caps; N, C: chain ends. Non-standard residues stand in square brackets, D forms with d. Residues, ends and D or L forms follow the SMILES beside them. *: point of attachment. Octanoyl = CCCCCCCC(=O)*; Dab = NCC[C@H](N)C(=O)O

Legend:
Escherichia coli [1] = experiment: Antibacterial activity against Escherichia coli assessed as inhibition of bacterial growth incubated for 24 hrs by broth microdilution method; assay type: functional; settings: read-out: MIC100
Klebsiella pneumoniae [2] = experiment: Antibacterial activity against Klebsiella pneumoniae assessed as inhibition of bacterial growth incubated for 24 hrs by broth microdilution method; assay type: functional; settings: read-out: MIC100
Pseudomonas aeruginosa [3] = experiment: Antibacterial activity against Pseudomonas aeruginosa PAO1 assessed as inhibition of bacterial growth incubated for 24 hrs by broth microdilution method; assay type: functional; settings: read-out: MIC100
HK-2 = experiment: Cytotoxicity against human HK-2 cells assessed as cell viability incubated for 72 hrs by CCK-8 assay; assay type: cell-based; settings: hk-2, 72 h
Pseudomonas aeruginosa [4] = experiment: Antibacterial activity against Pseudomonas aeruginosa assessed as inhibition of bacterial growth incubated for 24 hrs by broth microdilution method; assay type: functional; settings: read-out: MIC100
Moraxella catarrhalis [5] = experiment: Antibacterial activity against Moraxella catarrhalis assessed as inhibition of bacterial growth incubated for 24 hrs by broth microdilution method; assay type: functional; settings: read-out: MIC100
Acinetobacter baumannii [6] = experiment: Antibacterial activity against Acinetobacter baumannii assessed as inhibition of bacterial growth incubated for 24 hrs by broth microdilution method; assay type: functional; settings: read-out: MIC100
Klebsiella pneumoniae [7] = experiment: Antibacterial activity against Klebsiella pneumoniae KPN+14-8 assessed as inhibition of bacterial growth incubated for 24 hrs by broth microdilution method; assay type: functional; settings: read-out: MIC100
Klebsiella pneumoniae [8] = experiment: Antibacterial activity against Klebsiella pneumoniae KR15-2 assessed as inhibition of bacterial growth incubated for 24 hrs by broth microdilution method; assay type: functional; settings: read-out: MIC100
Acinetobacter baumannii [9] = experiment: Antibacterial activity against Acinetobacter baumannii ABA15-6 assessed as inhibition of bacterial growth incubated for 24 hrs by broth microdilution method; assay type: functional; settings: read-out: MIC100
Escherichia coli [10] = experiment: Antibacterial activity against Escherichia coli ECO+14-2 assessed as inhibition of bacterial growth incubated for 24 hrs by broth microdilution method; assay type: functional; settings: read-out: MIC100
Pseudomonas aeruginosa [11] = experiment: Antibacterial activity against Pseudomonas aeruginosa PR15-1 assessed as inhibition of bacterial growth incubated for 24 hrs by broth microdilution method; assay type: functional; settings: read-out: MIC100
Pseudomonas aeruginosa [12] = experiment: Antibacterial activity against Pseudomonas aeruginosa PAE15-14 assessed as inhibition of bacterial growth incubated for 24 hrs by broth microdilution method; assay type: functional; settings: read-out: MIC100
Pseudomonas aeruginosa [13] = experiment: Antibacterial activity against Pseudomonas aeruginosa PAE15-5 assessed as inhibition of bacterial growth incubated for 24 hrs by broth microdilution method; assay type: functional; settings: read-out: MIC100
Moraxella catarrhalis [14] = experiment: Antibacterial activity against Moraxella catarrhalis BCA14-7 assessed as inhibition of bacterial growth incubated for 24 hrs by broth microdilution method; assay type: functional; settings: read-out: MIC100
Acinetobacter baumannii [15] = experiment: Antibacterial activity against Acinetobacter baumannii ABA15-5 assessed as inhibition of bacterial growth incubated for 24 hrs by broth microdilution method; assay type: functional; settings: read-out: MIC100
Escherichia coli [16] = experiment: Antibacterial activity against Escherichia coli ECO-14-2 assessed as inhibition of bacterial growth incubated for 24 hrs by broth microdilution method; assay type: functional; settings: read-out: MIC100
Pseudomonas aeruginosa [17] = experiment: Antibacterial activity against Pseudomonas aeruginosa ATCC 27853 assessed as inhibition of bacterial growth incubated for 24 hrs by broth microdilution method; assay type: functional; settings: read-out: MIC100
Pseudomonas aeruginosa [18] = experiment: Antibacterial activity against Pseudomonas aeruginosa PAE15-3 assessed as inhibition of bacterial growth incubated for 24 hrs by broth microdilution method; assay type: functional; settings: read-out: MIC100
Pseudomonas aeruginosa [19] = experiment: Antibacterial activity against Pseudomonas aeruginosa PAE15-8 assessed as inhibition of bacterial growth incubated for 24 hrs by broth microdilution method; assay type: functional; settings: read-out: MIC100
Acinetobacter baumannii [20] = experiment: Antibacterial activity against Acinetobacter baumannii AR15-4 assessed as inhibition of bacterial growth incubated for 24 hrs by broth microdilution method; assay type: functional; settings: read-out: MIC100
Escherichia coli [21] = experiment: Antibacterial activity against Escherichia coli ECO+14-3 assessed as inhibition of bacterial growth incubated for 24 hrs by broth microdilution method; assay type: functional; settings: read-out: MIC100
Moraxella catarrhalis [22] = experiment: Antibacterial activity against Moraxella catarrhalis BCA15-3 assessed as inhibition of bacterial growth incubated for 24 hrs by broth microdilution method; assay type: functional; settings: read-out: MIC100
Acinetobacter baumannii [23] = experiment: Antibacterial activity against Acinetobacter baumannii ABA15-4 assessed as inhibition of bacterial growth incubated for 24 hrs by broth microdilution method; assay type: functional; settings: read-out: MIC100
Klebsiella pneumoniae [24] = experiment: Antibacterial activity against Klebsiella pneumoniae KPN+14-10 assessed as inhibition of bacterial growth incubated for 24 hrs by broth microdilution method; assay type: functional; settings: read-out: MIC100

| Compound | MIC (Escherichia coli [1]) [µg/mL] | MIC (Klebsiella pneumoniae [2]) [µg/mL] | MIC (Pseudomonas aeruginosa [3]) [µg/mL] | Activity (HK-2) | MIC (Pseudomonas aeruginosa [4]) [µg/mL] | MIC (Moraxella catarrhalis [5]) [µg/mL] | MIC (Acinetobacter baumannii [6]) [µg/mL] | MIC (Klebsiella pneumoniae [7]) [µg/mL] | MIC (Klebsiella pneumoniae [8]) [µg/mL] | MIC (Acinetobacter baumannii [9]) [µg/mL] | MIC (Escherichia coli [10]) [µg/mL] | MIC (Pseudomonas aeruginosa [11]) [µg/mL] | MIC (Pseudomonas aeruginosa [12]) [µg/mL] | MIC (Pseudomonas aeruginosa [13]) [µg/mL] | MIC (Moraxella catarrhalis [14]) [µg/mL] | MIC (Acinetobacter baumannii [15]) [µg/mL] | MIC (Escherichia coli [16]) [µg/mL] | MIC (Pseudomonas aeruginosa [18]) [µg/mL] | MIC (Pseudomonas aeruginosa [19]) [µg/mL] | MIC (Acinetobacter baumannii [20]) [µg/mL] | further results |
| --- | --- | --- | --- | --- | --- | --- | --- | --- | --- | --- | --- | --- | --- | --- | --- | --- | --- | --- | --- | --- | --- |
| CC[C@H](C)CCCCC(=O)N[C@@H](CCN)C(=O)N[C@H](C(=O)N[C@@H](CCN)C(=O)N[C@H]1CCNC(=O)[C@H]([C@@H](C)O)NC(=O)[C@H](CCN)NC(=O)[C@H](CCN)NC(=O)[C@H](CC(C)C)NC(=O)[C@@H](Cc2ccccc2)NC(=O)[C@H](CCN)NC1=O)[C@@H](C)OC(=O)[C@@H](N)CC(=O)O | 0.25 (≈ 0.19 µM) | 0.5 (≈ 0.379 µM) | 2 (≈ 1.52 µM) | Non-Toxic | 0.25 (≈ 0.19 µM) | > 32 | 0.125 (≈ 0.0948 µM) |  |  |  |  |  |  |  |  |  |  |  |  |  |  |
| CC(C)CCCCC(=O)N[C@@H](CCN)C(=O)N[C@H](C(=O)N[C@@H](CCN)C(=O)N[C@H]1CCNC(=O)[C@H]([C@@H](C)O)NC(=O)[C@H](CCN)NC(=O)[C@H](CCN)NC(=O)[C@H](CC(C)C)NC(=O)[C@@H](Cc2ccccc2)NC(=O)[C@H](CCN)NC1=O)[C@@H](C)OC(=O)[C@@H]1CCCN1 | 0.06 (≈ 0.0466 µM) | 0.5 (≈ 0.389 µM) | 1 (≈ 0.777 µM) | Non-Toxic | 0.03 (≈ 0.0233 µM) | > 32 |  | 1 (≈ 0.777 µM) | 0.5 (≈ 0.389 µM) | < 0.015 | 0.5 (≈ 0.389 µM) | 0.25 (≈ 0.194 µM) | 0.25 (≈ 0.194 µM) | 0.25 (≈ 0.194 µM) | 32 (≈ 24.9 µM) | 0.03 (≈ 0.0233 µM) | 0.06 (≈ 0.0466 µM) | 0.5 (≈ 0.389 µM) | 0.5 (≈ 0.389 µM) | 0.03 (≈ 0.0233 µM) | MIC (Pseudomonas aeruginosa [17]): 0.03 µg/mL (≈ 0.0233 µM); MIC (Escherichia coli [21]): 0.125 µg/mL (≈ 0.0972 µM); MIC (Moraxella catarrhalis [22]): 1 µg/mL (≈ 0.777 µM); MIC (Acinetobacter baumannii [23]): 0.03 µg/mL (≈ 0.0233 µM); MIC (Klebsiella pneumoniae [24]): 0.5 µg/mL (≈ 0.389 µM) |
| CC[C@H](C)CCCCC(=O)N[C@@H](CCN)C(=O)N[C@H](C(=O)N[C@@H](CCN)C(=O)N[C@H]1CCNC(=O)[C@H]([C@@H](C)OC(=O)[C@@H](N)CC(=O)O)NC(=O)[C@H](CCN)NC(=O)[C@H](CCN)NC(=O)[C@H](CC(C)C)NC(=O)[C@@H](Cc2ccccc2)NC(=O)[C@H](CCN)NC1=O)[C@@H](C)OC(=O)[C@@H](N)CC(=O)O |  |  | 4 (≈ 2.79 µM) | Non-Toxic |  |  |  |  |  |  |  |  |  |  |  |  |  |  |  |  |  |
| CCCCCCCC(=O)N[C@@H](CCN)C(=O)N[C@H](C(=O)N[C@@H](CCN)C(=O)N[C@H]1CCNC(=O)[C@H]([C@@H](C)O)NC(=O)[C@H](CCN)NC(=O)[C@H](CCN)NC(=O)[C@H](CC(C)C)NC(=O)[C@@H](Cc2ccccc2)NC(=O)[C@H](CCN)NC1=O)[C@@H](C)O (Octanoyl-[Dab]T[Dab][Dab][Dab][dF]L[Dab][Dab]T; lactam 4-C) | 0.25 (≈ 0.21 µM) | 2 (≈ 1.68 µM) | 4 (≈ 3.36 µM) |  | 0.03 (≈ 0.0252 µM) | 16 (≈ 13.5 µM) | 0.03 (≈ 0.0252 µM) | 8 (≈ 6.73 µM) | 2 (≈ 1.68 µM) | < 0.03 | 2 (≈ 1.68 µM) | 0.25 (≈ 0.21 µM) | 0.25 (≈ 0.21 µM) | 0.125 (≈ 0.105 µM) | 32 (≈ 26.9 µM) | 0.125 (≈ 0.105 µM) | 0.25 (≈ 0.21 µM) | 0.25 (≈ 0.21 µM) | 0.25 (≈ 0.21 µM) | 0.06 (≈ 0.0504 µM) | MIC (Escherichia coli [21]): 0.25 µg/mL (≈ 0.21 µM); MIC (Moraxella catarrhalis [22]): 1 µg/mL (≈ 0.841 µM); MIC (Acinetobacter baumannii [23]): < 0.03 µg/mL; MIC (Klebsiella pneumoniae [24]): 2 µg/mL (≈ 1.68 µM) |
| CC[C@H](C)CCCCC(=O)N[C@@H](CCN)C(=O)N[C@H](C(=O)N[C@@H](CCN)C(=O)N[C@H]1CCNC(=O)[C@H]([C@@H](C)OC(=O)[C@@H](N)CCCCN)NC(=O)[C@H](CCN)NC(=O)[C@H](CCN)NC(=O)[C@H](CC(C)C)NC(=O)[C@@H](Cc2ccccc2)NC(=O)[C@H](CCN)NC1=O)[C@@H](C)OC(=O)[C@@H](N)CCCCN |  |  | 4 (≈ 2.74 µM) | Non-Toxic |  |  |  |  |  |  |  |  |  |  |  |  |  |  |  |  |  |
